The target of one assay is CDK1/Cyclin B1 (Homo sapiens, UniProt P06493). As to the kind of experiment: CDK1/Cyclin B1 Biochemical Assay (TR-FRET), 0.015 mM ATP. The following applies: 0.15 μM Rb (Ser780)-biotin substrate, pH7.0, 60 min preincubation, 120 min reaction, room temperature. As for the experimental part: (§1) CDK2/Cyclin E1 and CDK1/Cyclin B1 Biochemical Assays
(§2) Compounds disclosed herein were tested for inhibition of CDK2/Cyclin E1 or CDK1/Cyclin B1 kinase in an assay based on the time-resolved fluorescence-resonance energy transfer (TR-FRET) methodology. The assay was carried out in 384-well low volume black plates in a reaction mixture containing CDK2/Cyclin E1 or CDK1/Cyclin B1, 0.060 mM ATP for CDK2/Cyclin E1 or 0.015 mM ATP for CDK1/Cyclin B1, 0.15 μM Rb (Ser780)-biotin substrate and 0-10 μM compound in buffer containing 50 mM HEPES pH7.0, 0.02% NaN3, 0.01% BSA, 0.1 mM Orthovanadate, 50 mM MgCl2, 1 mM DTT and 0.005% Tween-20. The kinase was incubated with compound for 60 minutes at room temperature and the reaction was initiated by the addition of ATP and Rb (Ser780)-biotin substrate. After reaction at room temperature for 120 minutes, an equal volume of stop/detection solution was added according to the manufacture's instruction (Cisbio Bioassays). The stop/detection solution contained Streptavidin-XL665 and Anti-pRb (Ser780) mAb-Eu Cryptate in Detection buffer (Cisbio Bioassays). Plates were incubated at room temperature for 60 minutes, and the TR-FRET signals (ex337 nm, em665 nm/620 nm) were recorded on a PHERAstar FSX plate reader (BMG Labtech). The inhibition percentage of CDK2/Cyclin E1 or CDK1/Cyclin B1 kinase activity in presence of increasing concentrations of compounds was calculated based on the ratio of fluorescence at 665 nm to that at 620 nm. The IC50 for each compound was derived from fitting the data to the four-parameter logistic equation by Dotmatics.

A further assay deals with CDK2/Cyclin E1 (Homo sapiens, UniProt P24941). Kind of assay: CDK2/Cyclin E1 Biochemical Assay (TR-FRET), 0.060 mM ATP. The following applies: 0.15 μM Rb (Ser780)-biotin substrate, pH7.0, 60 min preincubation, 120 min reaction, room temperature. As to the method: as §1, §2
On the technique in general: Time-resolved FRET reads energy transfer from a long-lived donor to a nearby acceptor.

This passage reports IC50 results from US20260297080A1, “BICYCLIC COMPOUNDS AS CDK INHIBITORS” (BeOne Medicines I GmbH, priority 2022, published 2026).

As a reminder, the IC50 is the midpoint of a concentration-inhibition curve.

Bounds are passed on as bounds.

Sequence of CDK1/Cyclin B1 (P06493 whole entry): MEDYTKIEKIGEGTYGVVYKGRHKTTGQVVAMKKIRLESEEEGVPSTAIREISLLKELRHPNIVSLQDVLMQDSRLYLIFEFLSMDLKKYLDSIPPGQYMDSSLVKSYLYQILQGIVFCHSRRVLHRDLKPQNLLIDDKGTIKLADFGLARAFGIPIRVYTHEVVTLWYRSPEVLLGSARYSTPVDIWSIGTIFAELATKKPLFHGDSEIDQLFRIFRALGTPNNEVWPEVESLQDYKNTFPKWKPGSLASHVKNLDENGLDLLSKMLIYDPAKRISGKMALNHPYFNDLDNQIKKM
Sequence of CDK1/Cyclin B1 (P14635 whole entry partner): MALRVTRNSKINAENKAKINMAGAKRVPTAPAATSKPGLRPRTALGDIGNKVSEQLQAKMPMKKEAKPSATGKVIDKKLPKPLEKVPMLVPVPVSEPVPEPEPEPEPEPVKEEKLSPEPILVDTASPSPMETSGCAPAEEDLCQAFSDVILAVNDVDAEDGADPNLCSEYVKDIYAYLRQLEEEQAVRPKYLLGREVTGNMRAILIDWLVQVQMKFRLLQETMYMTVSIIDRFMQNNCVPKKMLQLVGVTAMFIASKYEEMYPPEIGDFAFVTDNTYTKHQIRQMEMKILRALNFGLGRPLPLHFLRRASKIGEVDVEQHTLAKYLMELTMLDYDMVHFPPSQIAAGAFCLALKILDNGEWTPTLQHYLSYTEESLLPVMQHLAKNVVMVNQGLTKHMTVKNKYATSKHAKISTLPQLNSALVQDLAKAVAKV

As for `CC(C)NC(=O)O[C@H]1CC[C@@H](c2cc(Nc3ccc4c(c3)C(C)(C)NS4(=O)=O)n[nH]2)C1` (relative stereo) [Example 6, cis-3-(3-((3,3-dimethyl-1,1-dioxido-2,3-dihydrobenzo[d]isothiazol-5-yl)amino)-1H-pyrazol-5-yl)cyclopentyl isopropylcarbamate], the IC50 was determined as 108 nM against CDK1/Cyclin B1 and 6.5 nM at CDK2/Cyclin E1.
For `CC(C)NC(=O)O[C@H]1CC[C@@H](c2cc(Nc3cc4c(cc3F)C(C)(C)NS4(=O)=O)n[nH]2)C1` (relative stereo) [Example 8, cis-3-(3-((5-fluoro-3,3-dimethyl-1,1-dioxido-2,3-dihydrobenzo[d]isothiazol-6-yl)amino)-1H-pyrazol-5-yl)cyclopentyl isopropylcarbamate], in that order: 1540 nM and 121 nM.
The matching figures for `COc1c(Nc2cc([C@@H]3CC[C@H](OC(=O)NC(C)C)C3)[nH]n2)ccc2c1CNS2(=O)=O` (relative stereo) [Example 10, cis-3-(3-((4-methoxy-1,1-dioxido-2,3-dihydrobenzo[d]isothiazol-5-yl)amino)-1H-pyrazol-5-yl)cyclopentyl isopropylcarbamate]: 3020 nM and 102 nM.
The matching figures for `CC(C)NC(=O)O[C@H]1CC[C@@H](c2cc(Nc3ccc4c(c3)CN(C)S4(=O)=O)n[nH]2)C1` (relative stereo) [Example 11, cis-3-(3-((2-methyl-1,1-dioxido-2,3-dihydrobenzo[d]isothiazol-5-yl)amino)-1H-pyrazol-5-yl)cyclopentyl isopropylcarbamate]: 140 nM and 4.1 nM.
For the compound `CC(C)NC(=O)O[C@H]1CC[C@@H](c2cc(Nc3ccc4c(c3F)S(=O)(=O)NC4(C)C)n[nH]2)C1` (relative stereo) [Example 13, cis-3-(3-((7-fluoro-3,3-dimethyl-1,1-dioxido-2,3-dihydrobenzo[d]isothiazol-6-yl)amino)-1H-pyrazol-5-yl)cyclopentyl isopropylcarbamate], the half-maximal inhibitory concentration (IC50) on CDK1/Cyclin B1 came to 563 nM; against CDK2/Cyclin E1, 21 nM.
The matching figures for `CC(C)NC(=O)O[C@H]1CC[C@@H](c2cc(Nc3cc4c(cc3F)S(=O)(=O)NC4(C)C)n[nH]2)C1` (relative stereo) [Example 14, cis-3-(3-((6-fluoro-3,3-dimethyl-1,1-dioxido-2,3-dihydrobenzo[d]isothiazol-5-yl)amino)-1H-pyrazol-5-yl)cyclopentyl isopropylcarbamate]: 1090 nM and 30 nM.
Turning to `COc1cc2c(cc1Nc1cc([C@@H]3CC[C@H](OC(=O)NC(C)C)C3)[nH]n1)CNS2(=O)=O` (relative stereo) [Example 15, cis-3-(3-((6-methoxy-1,1-dioxido-2,3-dihydrobenzo[d]isothiazol-5-yl)amino)-1H-pyrazol-5-yl)cyclopentyl isopropylcarbamate], the IC50 was found to be 1070 nM against CDK1/Cyclin B1 and 23 nM at CDK2/Cyclin E1.
The matching figures for `CC(C)NC(=O)O[C@H]1CC[C@@H](c2cc(Nc3ccc4c(c3)S(=O)(=O)NC4=O)n[nH]2)C1` (relative stereo) [Example 16, cis-3-(3-((1,1-dioxido-3-oxo-2,3-dihydrobenzo[d]isothiazol-6-yl)amino)-1H-pyrazol-5-yl)cyclopentyl isopropylcarbamate]: 385 nM and 18 nM.
The matching figures for `CC(C)NC(=O)O[C@H]1CC[C@@H](c2cc(Nc3ccc4c(c3)C(=O)NS4(=O)=O)n[nH]2)C1` (relative stereo) [Example 17, cis-3-(3-((1,1-dioxido-3-oxo-2,3-dihydrobenzo[d]isothiazol-5-yl)amino)-1H-pyrazol-5-yl)cyclopentyl isopropylcarbamate]: 470 nM and 11.8 nM.
Take `CC(C)NC(=O)O[C@H]1CC[C@@H](c2cc(Nc3ccc4c(c3)CN(c3ccc5c(c3)CNS5(=O)=O)S4(=O)=O)n[nH]2)C1` (relative stereo) [Example 18, cis-3-(3-((1,1,1′,1′-tetraoxido-2′,3′-dihydro-3H-[2,5′-bibenzo[d]isothiazol]-5-yl)amino)-1H-pyrazol-5-yl)cyclopentyl isopropylcarbamate]: the half-maximal inhibitory concentration (IC50) worked out at 422 nM at CDK1/Cyclin B1 and 21.5 nM on CDK2/Cyclin E1.
The matching figures for `CC(C)NC(=O)N[C@H]1CC[C@@H](c2cc(Nc3ccc4c(c3)CNS4(=O)=O)n[nH]2)C1` (relative stereo) [Example 19, cis-1-(3-(3-((1,1-dioxido-2,3-dihydrobenzo[d]isothiazol-5-yl)amino)-1H-pyrazol-5-yl)cyclopentyl)-3-isopropylurea]: 1070 nM and 305 nM.
Regarding `CC(C)NC(=O)O[C@H]1CC[C@@H](c2cc(Nc3cc4c(cc3C(F)(F)F)S(=O)(=O)NC4)n[nH]2)C1` (relative stereo) [Example 20, cis-3-(3-((1,1-dioxido-6-(trifluoromethyl)-2,3-dihydrobenzo[d]isothiazol-5-yl)amino)-1H-pyrazol-5-yl)cyclopentyl isopropylcarbamate], the IC50 is more than 10000 nM at CDK1/Cyclin B1 and 931 nM against CDK2/Cyclin E1.
As to `CC(C)NC(=O)O[C@H]1CC[C@@H](c2cc(Nc3cc4c(cc3C(F)(F)F)S(=O)(=O)NC4(C)C)n[nH]2)C1` (relative stereo) [Example 21, cis-3-(3-((3,3-dimethyl-1,1-dioxido-6-(trifluoromethyl)-2,3-dihydrobenzo[d]isothiazol-5-yl)amino)-1H-pyrazol-5-yl)cyclopentyl isopropylcarbamate], the IC50 against CDK1/Cyclin B1 and on CDK2/Cyclin E1 was more than 10000 nM in each case.
For the compound `CC(C)NC(=O)O[C@H]1CC[C@@H](c2cc(Nc3ccc4c(c3C(F)(F)F)CNS4(=O)=O)n[nH]2)C1` (relative stereo) [Example 22, cis-3-(3-((1,1-dioxido-4-(trifluoromethyl)-2,3-dihydrobenzo[d]isothiazol-5-yl)amino)-1H-pyrazol-5-yl)cyclopentyl isopropylcarbamate], the figures for the IC50 at CDK1/Cyclin B1 and against CDK2/Cyclin E1 were more than 10000 nM and 202 nM, respectively.
For `COc1cc2c(cc1Nc1cc([C@@H]3CC[C@H](OC(=O)NC(C)C)C3)[nH]n1)C(C)(C)NS2(=O)=O` (relative stereo) [Example 23, cis-3-(3-((6-methoxy-3,3-dimethyl-1,1-dioxido-2,3-dihydrobenzo[d]isothiazol-5-yl)amino)-1H-pyrazol-5-yl)cyclopentyl isopropylcarbamate], in that order: 1170 nM and 244 nM.
For `COc1c(Nc2cc([C@@H]3CC[C@H](OC(=O)NC(C)C)C3)[nH]n2)ccc2c1C(C)(C)NS2(=O)=O` (relative stereo) [Example 24, cis-3-(3-((4-methoxy-3,3-dimethyl-1,1-dioxido-2,3-dihydrobenzo[d]isothiazol-5-yl)amino)-1H-pyrazol-5-yl)cyclopentyl isopropylcarbamate], in that order: 9960 nM and 887 nM.
The matching figures for `Cc1cc2c(cc1Nc1cc([C@@H]3CC[C@H](OC(=O)NC(C)C)C3)[nH]n1)CNS2(=O)=O` (relative stereo) [Example 25, cis-3-(3-((6-methyl-1,1-dioxido-2,3-dihydrobenzo[d]isothiazol-5-yl)amino)-1H-pyrazol-5-yl)cyclopentyl isopropylcarbamate]: 271 nM and 11 nM.
